Measured values as given in US20090291975A1, “DUAL OPIOID PAIN THERAPY” (priority 2008, published 2009).

Test system: patients following bunionectomy surgery (acute pain)
Assay: Study 4: opioid adverse events at morphine equivalent doses, bunionectomy study
Details: morphine equivalent 12 mg, q6h, 48 hr

CN1CC[C@]23c4c5ccc(O)c4O[C@H]2[C@@H](O)C=C[C@H]3[C@H]1C5 [Morphine, morphine]
Adverse Events (%): Constipation - moderate/severe: 10% | Adverse Events (%): Constipation mild/mod/severe: 10% | Adverse Events (%): Dizziness - moderate/severe: 7% | Adverse Events (%): Dizziness mild/mod/severe: 31% | Adverse Events (%): Nausea - moderate/severe: 28% | Adverse Events (%): Nausea mild/mod/severe: 59% | Adverse Events (%): Vomiting - moderate/severe: 21% | Adverse Events (%): Vomiting mild/mod/severe: 21% | Dropouts (%): 7%

COc1ccc2c3c1O[C@H]1C(=O)CC[C@@]4(O)[C@@H](C2)N(C)CC[C@]314 [Oxycodone, oxycodone]
Adverse Events (%): Constipation - moderate/severe: 6% | Adverse Events (%): Constipation mild/mod/severe: 6% | Adverse Events (%): Dizziness - moderate/severe: 12% | Adverse Events (%): Dizziness mild/mod/severe: 24% | Adverse Events (%): Nausea - moderate/severe: 26% | Adverse Events (%): Nausea mild/mod/severe: 50% | Adverse Events (%): Vomiting - moderate/severe: 21% | Adverse Events (%): Vomiting mild/mod/severe: 21% | Dropouts (%): 12%
